From ChEMBL document CHEMBL3885861, “Open TG-GATES”

Organism: Rattus norvegicus
Assay: Open TG-GATES - Regimen: Single
Format: toxicity, organism-based, Sprague-Dawley
Set-up: regimen Single, gender Male, age 6 weeks
Settings: in vivo, po, route gavage; for APTT / Bas / Eos / Fbg / Hb / Ht / Lym / MCH / MCHC / MCV / Mono / Neu / PT / Plat / RBC / Ret / WBC: tissue Blood; for KIDNEY_L / KIDNEY_R / KIDNEY_TOTAL: tissue Kidney; for LIVER: tissue Liver; for ALP / ALT / AST / CRE / DBIL / GLC / IP / K / LDH / Na / PL / RALB / TBIL / TC / TG / TP / gamma-GTP: tissue Plasma
[1] = 0 mg/kg, 3 h, dose level Control
[2] = 0 mg/kg, 6 h, dose level Control
[3] = 0 mg/kg, 9 h, dose level Control
[4] = 0 mg/kg, 24 h, dose level Control

## CC(C)Cc1ccc(C(C)C(=O)O)cc1 (stereo not drawn) [IBUPROFEN]
[1]
  TERMINAL_BW: 204.9 g
  APTT: 21.3 s
  Bas: 0%
  Eos: 1%
  Fbg: 277 mg/dL
  Hb: 13.2 g/dL
  Ht: 38.4%
  Lym: 72.8%
  MCH: 21.5 pg
  MCHC: 34.3%
  MCV: 62.7 fL
  Mono: 2%
  Neu: 23.6%
  PT: 15.8 s
  Plat: 113 x10_4/uL
  RBC: 612.8 x10_4/ul
  Ret: 7.9%
  WBC: 79.6 x10_2/uL
  KIDNEY_L: 0.9 g
  KIDNEY_R: 1 g
  KIDNEY_TOTAL: 1.9 g
  LIVER: 9.3 g
  ALP: 1578.8 IU/L
  ALT: 42.4 IU/L
  AST: 81.8 IU/L
  CRE: 0.2 mg/dL
  DBIL: 0 mg/dL
  GLC: 183 mg/dL
  IP: 8.2 mg/dL
  K: 4 meq/L
  LDH: 274 IU/L
  Na: 142 meq/L
  PL: 130.4 mg/dL
  RALB: 3 g/dL
  TBIL: 0.018 mg/dL
  TC: 72.6 mg/dL
  TG: 51 mg/dL
  TP: 5.4 g/dL
  gamma-GTP: 1.2 IU/L
[2]
  TERMINAL_BW: 200 g
  Bas: 0%
  Eos: 0.8%
  Fbg: 288.8 mg/dL
  Hb: 13.6 g/dL
  Ht: 40%
  Lym: 82.2%
  MCH: 21.7 pg
  MCHC: 34%
  MCV: 63.8 fL
  Mono: 1.8%
  PT: 15.9 s
  Plat: 118.6 x10_4/uL
  RBC: 627 x10_4/ul
  Ret: 7.8%
  WBC: 96.9 x10_2/uL
  KIDNEY_L: 0.9 g
  KIDNEY_R: 0.9 g
  KIDNEY_TOTAL: 1.9 g
  LIVER: 8.8 g
  ALP: 1383.4 IU/L
  ALT: 39.6 IU/L
  AST: 75.4 IU/L
  CRE: 0.2 mg/dL
  DBIL: 0 mg/dL
  GLC: 178 mg/dL
  IP: 8.9 mg/dL
  K: 4.2 meq/L
  LDH: 236.2 IU/L
  Na: 140.6 meq/L
  PL: 132.2 mg/dL
  RALB: 2.9 g/dL
  TBIL: 0.028 mg/dL
  TC: 73.2 mg/dL
  TG: 69.8 mg/dL
  TP: 5.4 g/dL
  gamma-GTP: 1.2 IU/L
[3]
  TERMINAL_BW: 198.1 g
  APTT: 23.4 s
  Bas: 0%
  Eos: 0.6%
  Fbg: 287 mg/dL
  Hb: 13 g/dL
  Ht: 38.7%
  Lym: 79.6%
  MCH: 21.6 pg
  MCHC: 33.8%
  MCV: 64 fL
  Mono: 1.8%
  Neu: 17%
  PT: 15.9 s
  Plat: 125.1 x10_4/uL
  RBC: 604.6 x10_4/ul
  Ret: 7.4%
  WBC: 76.6 x10_2/uL
  KIDNEY_L: 0.9 g
  KIDNEY_R: 0.9 g
  KIDNEY_TOTAL: 1.8 g
  LIVER: 8.2 g
  ALP: 1448.2 IU/L
  ALT: 36.6 IU/L
  AST: 73.2 IU/L
  CRE: 0.2 mg/dL
  DBIL: 0.006 mg/dL
  GLC: 178 mg/dL
  IP: 9.6 mg/dL
  K: 4.1 meq/L
  Na: 141.4 meq/L
  PL: 130.4 mg/dL
  RALB: 2.9 g/dL
  TBIL: 0.026 mg/dL
  TC: 72.8 mg/dL
  TG: 54.4 mg/dL
  TP: 5.5 g/dL
  gamma-GTP: 1.2 IU/L
[4]
  TERMINAL_BW: 213.6 g
  APTT: 20.3 s
  Bas: 0%
  Eos: 1.2%
  Fbg: 306 mg/dL
  Hb: 13.1 g/dL
  Ht: 38.6%
  Lym: 79.8%
  MCH: 21.4 pg
  MCHC: 33.8%
  MCV: 63.5 fL
  Mono: 3.2%
  Neu: 15.2%
  PT: 16.5 s
  Plat: 124.1 x10_4/uL
  RBC: 609.8 x10_4/ul
  Ret: 7.4%
  WBC: 117.7 x10_2/uL
  KIDNEY_L: 0.9 g
  KIDNEY_R: 0.9 g
  KIDNEY_TOTAL: 1.8 g
  LIVER: 10.1 g
  ALP: 1790.4 IU/L
  ALT: 47.2 IU/L
  AST: 77.2 IU/L
  CRE: 0.2 mg/dL
  DBIL: 0 mg/dL
  GLC: 198.8 mg/dL
  IP: 7.3 mg/dL
  K: 4.5 meq/L
  LDH: 235.4 IU/L
  Na: 141.6 meq/L
  PL: 145.8 mg/dL
  RALB: 3.1 g/dL
  TBIL: 0 mg/dL
  TC: 79.4 mg/dL
  TP: 5.5 g/dL
  gamma-GTP: 1.2 IU/L
60 mg/kg, 3 h, dose level Low
  TERMINAL_BW: 204.2 g
  APTT: 21.7 s
  Bas: 0%
  Eos: 0%
  Fbg: 294.6 mg/dL
  Ht: 39.3%
  Lym: 73.8%
  MCH: 21.4 pg
  MCHC: 33.7%
  MCV: 63.8 fL
  Mono: 2.2%
  Neu: 22.6%
  PT: 15.3 s
  RBC: 618.2 x10_4/ul
  Ret: 7.9%
  WBC: 101.5 x10_2/uL
  KIDNEY_L: 0.9 g
  KIDNEY_R: 0.9 g
  KIDNEY_TOTAL: 1.7 g
  LIVER: 9.2 g
  ALP: 1434.6 IU/L
  ALT: 47.8 IU/L
  AST: 79.4 IU/L
  CRE: 0.2 mg/dL
  DBIL: 0.002 mg/dL
  GLC: 177 mg/dL
  IP: 8.4 mg/dL
  K: 4.1 meq/L
  LDH: 256 IU/L
  Na: 141.2 meq/L
  PL: 144.8 mg/dL
  RALB: 3 g/dL
  TBIL: 0.028 mg/dL
  TC: 85.2 mg/dL
  TG: 64.2 mg/dL
  TP: 5.4 g/dL
  gamma-GTP: 1.4 IU/L
60 mg/kg, 6 h, dose level Low
  TERMINAL_BW: 205.3 g
  APTT: 23.2 s
  Bas: 0%
  Eos: 1%
  Fbg: 292.4 mg/dL
  Hb: 13.4 g/dL
  Ht: 39.3%
  Lym: 72.2%
  MCH: 21.6 pg
  MCHC: 34%
  MCV: 63.5 fL
  Mono: 2.6%
  PT: 16 s
  Plat: 116.1 x10_4/uL
  RBC: 619.4 x10_4/ul
  Ret: 8%
  WBC: 76.4 x10_2/uL
  KIDNEY_L: 0.9 g
  KIDNEY_R: 1 g
  KIDNEY_TOTAL: 1.9 g
  LIVER: 8.8 g
  ALP: 1432.6 IU/L
  ALT: 45 IU/L
  AST: 79.6 IU/L
  CRE: 0.1 mg/dL
  DBIL: 0.004 mg/dL
  GLC: 174.8 mg/dL
  IP: 9.6 mg/dL
  K: 4.5 meq/L
  LDH: 256.6 IU/L
  Na: 140 meq/L
  PL: 130.4 mg/dL
  RALB: 2.9 g/dL
  TBIL: 0.032 mg/dL
  TC: 72.6 mg/dL
  TG: 56 mg/dL
  TP: 5.1 g/dL
  gamma-GTP: 1.2 IU/L
60 mg/kg, 9 h, dose level Low
  TERMINAL_BW: 199.8 g
  Bas: 0%
  Eos: 0.6%
  Fbg: 275 mg/dL
  Hb: 12.8 g/dL
  Ht: 38.1%
  Lym: 76.6%
  MCH: 21.5 pg
  MCHC: 33.6%
  MCV: 64.1 fL
  Mono: 2.6%
  Neu: 19.2%
  PT: 15.8 s
  Plat: 116.8 x10_4/uL
  RBC: 594.6 x10_4/ul
  Ret: 8.2%
  WBC: 66.8 x10_2/uL
  KIDNEY_L: 1 g
  KIDNEY_R: 1 g
  KIDNEY_TOTAL: 1.9 g
  LIVER: 8.2 g
  ALP: 1788.8 IU/L
  ALT: 40.8 IU/L
  AST: 72.4 IU/L
  CRE: 0.1 mg/dL
  DBIL: 0.006 mg/dL
  GLC: 174.8 mg/dL
  K: 4.4 meq/L
  LDH: 208.4 IU/L
  Na: 139.8 meq/L
  RALB: 2.9 g/dL
  TBIL: 0.026 mg/dL
  TC: 67 mg/dL
  TG: 58.6 mg/dL
  TP: 5.3 g/dL
  gamma-GTP: 1 IU/L
60 mg/kg, 24 h, dose level Low
  TERMINAL_BW: 206.8 g
  APTT: 21.7 s
  Bas: 0%
  Eos: 1%
  Fbg: 309.8 mg/dL
  Ht: 40.6%
  Lym: 78.2%
  MCH: 21.6 pg
  MCHC: 34.1%
  MCV: 63.2 fL
  Mono: 3.2%
  Neu: 17%
  PT: 16.5 s
  Plat: 112 x10_4/uL
  RBC: 643.6 x10_4/ul
  Ret: 6.8%
  WBC: 119.2 x10_2/uL
  KIDNEY_L: 0.9 g
  KIDNEY_R: 0.9 g
  KIDNEY_TOTAL: 1.8 g
  LIVER: 9.8 g
  ALP: 1457.4 IU/L
  ALT: 46.6 IU/L
  AST: 76.8 IU/L
  CRE: 0.2 mg/dL
  DBIL: 0 mg/dL
  GLC: 183.6 mg/dL
  IP: 7.7 mg/dL
  K: 4.5 meq/L
  LDH: 274 IU/L
  Na: 141.6 meq/L
  PL: 142.2 mg/dL
  RALB: 3 g/dL
  TBIL: 0.004 mg/dL
  TC: 76.6 mg/dL
